Data: patent US20250009815A1, “COMPOSITION FOR COMPETITIVE INHIBITION OF PATHOGENS AND RESTORATION OF MICROBIAL ECOLOGICAL BALANCE” (priority 2019, published 2025)
Where two headings read alike, the source gives them in different places.

Columns and labels:
Type in all cases: cell-based
[1] = tested on: VP01 (suspected fungal vaginal pathogen); experiment: Zone of inhibition against isolated vaginal pathogen VP01
Excerpt: (§1) Antimicrobial activities against isolated vaginal pathogens (i.e. VP01, VP02, VP06, VP03, VP04 and VP05) were individually screened and analyzed to conclude and find effective probiotic compositions.
(§2) Different combination of selected probiotics strains with variation in potency were formed and underwent potential antimicrobial effect against isolated vaginal bacterial and fungal pathogens. The extents of zone of inhibition in antimicrobial activity were considered for selection of formulation. The probiotic compositions of the present invention comprise (a) Bacillus coagulans (B.C.); (b) Bacillus subtilis (B.S.); (c) citric acid (CA); (d) gallic acid (GA); (e) beta-cyclodextrin (adhesive); (f) allentoin and (g) a pH regulator (h) lanolin (i) polyethylene glycol (j) a cooling agent etc., and (k) a bioadhesive.
(§3) The zones of inhibition were also examined for each individual components at the same concentration levels as present in the respective combined formulations.

[2] = tested on: VP02 (suspected fungal vaginal pathogen); experiment: Zone of inhibition against isolated vaginal pathogen VP02
Excerpt: as §1, §2, §3

[3] = tested on: VP06, identified as Candida albicans
Excerpt: as §1, §2, §3
Vaginal swabs obtained from infected patients were grown on Potato Dextrose Agar (PDA) media, and thereafter single colonies were re-streaked on Potato Dextrose Agar plates to obtain fungal isolates, which were designated as VP06, VP02 and VP01. Potato Dextrose Agar is a common medium usually practiced to isolate and culture various fungi only, specifically applicable for yeast or fungi.

[4] = tested on: VP03, identified as Gardnerella vaginalis; experiment: Zone of inhibition against isolated vaginal pathogen VP03
Excerpt: as §1, §2, §3

[5] = tested on: VP04 (suspected bacterial vaginal pathogen); experiment: Zone of inhibition against isolated vaginal pathogen VP04
Excerpt: as §1, §2, §3

[6] = tested on: VP05 (suspected bacterial vaginal pathogen); experiment: Zone of inhibition against isolated vaginal pathogen VP05
Excerpt: as §1, §2, §3

[7] = Table 1 initial studies, n-i = no zone of inhibition
[8] = Table 4, amounts as in formulation A: B.c 700, B.s 25 million cfu, CA 10, GA 100 mg, n-i = no zone
[9] = Table 5, amounts as in formulation B: B.c 550, B.s 125 million cfu, CA 20, GA 60 mg, n-i = no zone
[10] = Table 6, amounts as in formulation C: B.c 350, B.s 350 million cfu, CA 20, GA 40 mg, n-i = no zone
[11] = Table 7, amounts as in formulation D: B.c 125, B.s 550 million cfu, CA 60, GA 20 mg, n-i = no zone
[12] = Table 8, amounts as in formulation E: B.c 25, B.s 700 million cfu, CA 100, GA 10 mg, n-i = no zone

| SMILES | ZONE OF INHIBITION VP01 [1, 7] | ZONE OF INHIBITION VP01 [1, 8] | ZONE OF INHIBITION VP01 [1, 9] | ZONE OF INHIBITION VP01 [1, 10] | ZONE OF INHIBITION VP01 [1, 11] | ZONE OF INHIBITION VP01 [1, 12] | ZONE OF INHIBITION VP02 [2, 7] | ZONE OF INHIBITION VP02 [2, 8] | ZONE OF INHIBITION VP02 [2, 9] | ZONE OF INHIBITION VP02 [2, 10] | ZONE OF INHIBITION VP02 [2, 11] | ZONE OF INHIBITION VP06 [3, 7] | ZONE OF INHIBITION VP06 [3, 8] | ZONE OF INHIBITION VP06 [3, 9] | ZONE OF INHIBITION VP06 [3, 10] | ZONE OF INHIBITION VP06 [3, 11] | ZONE OF INHIBITION VP06 [3, 12] | ZONE OF INHIBITION VP03 [4, 7] | ZONE OF INHIBITION VP03 [4, 9] | ZONE OF INHIBITION VP03 [4, 10] | further results |
| --- | --- | --- | --- | --- | --- | --- | --- | --- | --- | --- | --- | --- | --- | --- | --- | --- | --- | --- | --- | --- | --- |
| O=C(O)c1cc(O)c(O)c(O)c1 [Gallic Acid (GA), gallic acid] | 35 mm | 19 mm | 17 mm | 16 mm | 16 mm | 13 mm | 35 mm | 16 mm | 15 mm | 15 mm | 18 mm | 9 mm | n-i | n-i | n-i | N-i | n-i | n-i | 5 mm | 7 mm | ZONE OF INHIBITION VP02 ([2]; Table 8, amounts as in formulation E: B.c 25, B.s 700 million cfu, CA 100, GA 10 mg, n-i = no zone, listed as GA): n-i; ZONE OF INHIBITION VP02 ([2]; Table 8, amounts as in formulation E: B.c 25, B.s 700 million cfu, CA 100, GA 10 mg, n-i = no zone, listed as Gallic Acid): not active; ZONE OF INHIBITION VP03 [4, 8]: 8 mm; ZONE OF INHIBITION VP03 ([4]; Table 7, amounts as in formulation D: B.c 125, B.s 550 million cfu, CA 60, GA 20 mg, n-i = no zone, listed as GA): n-i; ZONE OF INHIBITION VP03 ([4]; Table 7, amounts as in formulation D: B.c 125, B.s 550 million cfu, CA 60, GA 20 mg, n-i = no zone, listed as Gallic Acid): not active; ZONE OF INHIBITION VP03 [4, 12]: n-i; ZONE OF INHIBITION VP04 [5, 7]: 9 mm; ZONE OF INHIBITION VP04 [5, 8]: 10 mm; ZONE OF INHIBITION VP04 [5, 9]: 10 mm; ZONE OF INHIBITION VP04 [5, 10]: 9 mm; ZONE OF INHIBITION VP04 [5, 11]: 9 mm; ZONE OF INHIBITION VP04 [5, 12]: 7 mm; ZONE OF INHIBITION VP05 [6, 7]: 11 mm; ZONE OF INHIBITION VP05 [6, 8]: 7 mm; ZONE OF INHIBITION VP05 [6, 9]: 7 mm; ZONE OF INHIBITION VP05 [6, 10]: 6 mm; ZONE OF INHIBITION VP05 [6, 11]: 6 mm; ZONE OF INHIBITION VP05 [6, 12]: 6 mm |
| O=C(O)CC(O)(CC(=O)O)C(=O)O [Citric Acid (CA), citric acid] | 41 mm | n-i | n-i | 23 mm | 22 mm | 25 mm | 30 mm | n-i | n-i | n-i | n-i | n-i | n-i | n-i | n-i | n-i | n-i | 10 mm | 7 mm | 8 mm | ZONE OF INHIBITION VP02 ([2]; Table 8, amounts as in formulation E: B.c 25, B.s 700 million cfu, CA 100, GA 10 mg, n-i = no zone, listed as CA): n-i; ZONE OF INHIBITION VP02 ([2]; Table 8, amounts as in formulation E: B.c 25, B.s 700 million cfu, CA 100, GA 10 mg, n-i = no zone, listed as Citric acid): not active; ZONE OF INHIBITION VP03 ([4]; Table 4, amounts as in formulation A: B.c 700, B.s 25 million cfu, CA 10, GA 100 mg, n-i = no zone, listed as CA): n-i; ZONE OF INHIBITION VP03 ([4]; Table 4, amounts as in formulation A: B.c 700, B.s 25 million cfu, CA 10, GA 100 mg, n-i = no zone, listed as Citric Acid): unable to cause any inhibitory effect; ZONE OF INHIBITION VP03 ([4]; Table 7, amounts as in formulation D: B.c 125, B.s 550 million cfu, CA 60, GA 20 mg, n-i = no zone, listed as CA): n-i; ZONE OF INHIBITION VP03 ([4]; Table 7, amounts as in formulation D: B.c 125, B.s 550 million cfu, CA 60, GA 20 mg, n-i = no zone, listed as Citric acid): not active; ZONE OF INHIBITION VP03 [4, 12]: 9 mm; ZONE OF INHIBITION VP04 [5, 7]: 11 mm; ZONE OF INHIBITION VP04 [5, 8]: n-i; ZONE OF INHIBITION VP04 [5, 9]: n-i; ZONE OF INHIBITION VP04 [5, 10]: 10 mm; ZONE OF INHIBITION VP04 [5, 11]: 10 mm; ZONE OF INHIBITION VP04 [5, 12]: 11 mm; ZONE OF INHIBITION VP05 [6, 7]: 19 mm; ZONE OF INHIBITION VP05 [6, 8]: n-i; ZONE OF INHIBITION VP05 [6, 9]: n-i; ZONE OF INHIBITION VP05 [6, 10]: 8 mm; ZONE OF INHIBITION VP05 [6, 11]: 8 mm; ZONE OF INHIBITION VP05 [6, 12]: 10 mm |
